Molecular target: T1, UGT1A3 (Homo sapiens, UniProt P35503)
T1 construct: using pooled human liver microsomes incubated with the cocktail of UGT substrates; tissue Corning Life Sciences 452161; host or cells: pooled human liver microsomes
T1 sequence (P35503 29-534): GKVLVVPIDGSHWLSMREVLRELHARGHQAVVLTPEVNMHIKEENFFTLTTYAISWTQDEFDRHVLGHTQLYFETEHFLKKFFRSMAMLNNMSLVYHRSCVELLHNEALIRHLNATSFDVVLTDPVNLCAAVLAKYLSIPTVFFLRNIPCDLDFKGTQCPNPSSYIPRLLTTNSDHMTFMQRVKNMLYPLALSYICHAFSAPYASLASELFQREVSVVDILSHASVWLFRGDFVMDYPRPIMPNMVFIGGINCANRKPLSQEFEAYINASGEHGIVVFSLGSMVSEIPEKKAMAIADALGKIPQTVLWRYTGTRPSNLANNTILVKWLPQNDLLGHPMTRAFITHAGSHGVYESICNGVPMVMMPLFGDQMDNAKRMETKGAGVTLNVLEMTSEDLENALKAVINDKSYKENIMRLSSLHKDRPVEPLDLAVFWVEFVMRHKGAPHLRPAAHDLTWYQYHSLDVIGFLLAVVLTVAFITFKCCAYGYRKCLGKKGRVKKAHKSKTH
Assay: UGT1A3-catalyzed chenodeoxycholic acid 24-acyl-glucuronidation inhibition in pooled human liver microsomes
Type: in vitro ADME
Procedure: The extents of aschantin on UGT1A1, UGT1A3, UGT1A4, UGT1A6, UGT1A9, and UGT2B7 were evaluated by LC-MS/MS, using pooled human liver microsomes incubated with the cocktail of UGT substrates. The method was modified from that of Joo et al..
The metabolites formed from the six UGT cocktail substrates were simultaneously measured using the LC-MS/MS method. […] The mass spectrometer was equipped with an ESI source and was operated in both positive and negative ion modes. […] Each metabolite was quantified via SRM in the negative ion (chenodeoxycholic acid 24-acyl-β-glucuronide, 567.2 > 391.0; mycophenolic acid glucuronide, 495.2 > 318.9; propofol glucuronide, 353.3 > 177.1) and positive ion (SN-38 glucuronide, 569.0 > 393.0; trifluoperazine glucuronide, 584.2 > 408.1; N-acetylserotonin-β-D-glucuronide, 395.2 > 219.0; naloxone 3-β-D-glucuronide, 504.0 > 310.0; meloxicam, 352.0 > 115.1) modes.

IC50 (UGT1A3-catalyzed chenodeoxycholic acid 24-acyl-glucuronidation, 2 µM chenodeoxycholic acid, pooled human liver microsomes): > 200 µM | inhibition of UGT1A3-catalyzed chenodeoxycholic acid 24-acyl-glucuronidation (aschantin at 200 µM, human liver microsomes): not inhibited
SMILES: COc1cc([C@H]2OC[C@H]3[C@@H]2CO[C@@H]3c2ccc3c(c2)OCO3)cc(OC)c1OC [Aschantin]

Reference: article PMC6273138, “Inhibitory Effects of Aschantin on Cytochrome P450 and Uridine 5′-diphospho-glucuronosyltransferase Enzyme Activities in Human Liver Microsomes” (Molecules, 2016)
